Like-named read-outs stand apart in the source and are kept apart here.
System: FD (familial dysautomonia) IKBKAP minigene, exon 20 inclusion, in HEK293T cells
Experiment: Primary splicing assay (FD IKBKAP minigene, Firefly/Renilla luciferase reporter in HEK293T)
Format: cell-based, human
Settings: for Emax / EC (maximum kinetin efficacy): Homo sapiens, HEK-293T; for EC (maximum kinetin efficacy): HEK293T, read-out: ECk (compound concentration at which the maximum kinetin efficacy (200 μM) is reached); for ECk, Firefly only: Renilla interference/Firefly only (footnote c)
Method: As used herein, the expression “ECk” refers to the compound concentration at which the maximum kinetin efficacy (200 μM) is reached.
Splicing analysis was made possible by using an FD (familial dysautomonia) IKBKAP minigene which contained exon 19 through exon 21, including intervening introns, and also the T→C Thymine to cytosine transition located 6 base-pairs from the end of IKBKAP exon 20; See SEQ ID NO:3 for the complete sequence of plasmid pcDNA3.1/V5HisTOPO with Renilla-Familial Dysautonomia minigene-Firefly. Firefly luciferase (SEQ ID NO:14) was utilized as a splicing reporter, located downstream of exon 21, and Renilla luciferase (SEQ ID NO:13) was used as a control, located upstream of exon 19. The sequence of exon 19 is presented as SEQ ID NO:7; the Intron between Exon 19 and Exon 20 is SEQ ID NO:8; exon 20 is SEQ ID NO:9; the intron between […]; exon 21 is SEQ ID NO: 11, and the spliced sequence of exons 19-20-21 is SEQ ID NO:12. HEK293T cells were plated in a 6-well plate 24 hours prior to transfection. Transfection was carried out using a mixture of Opti-MEM (GIBCO ref. 31985), IKBKAP minigene, and Fugene HID (PROMEGA ref. E2311), incubated in DMEM media containing HEK293T cells at 37° C. The ratio of Opti-MEM, minigene, and Fugene was kept at approximately 9:1.5:1, with a total volume of 150 μL of transfection mixture applied per well.
After 4 hours of transfection, the cells were then plated in a 96-well plate coated with poly-L-lysine (SIGMA cat.P4707) for treatment scheduled 24 hours later. […] After 24 hours of treatment, cells were washed in the poly-L-lysine coated 96-well plate using PBS and subsequently harvested using Passive Lysis Buffer (Promega cat.E196). Cell lysate was transferred to a black and white 96-well plate and analyzed for splicing correction using a Glomax luminometer (PROMEGA GloMax® 96 Microplate Luminometer w/Dual Injectors cat.E6521) and Promega Dual Glo Firefly and Stop and Glo Renilla reagents (Cat.E196). The compound's ability to correct splicing and promote exon 20 inclusion was marked by an increase in Firefly signal. Renilla signal, which is independent of exon 20 inclusion, was used to correct for cell number. Using the ratio of Firefly to Renilla signal, a dose response curve was produced, which referenced kinetin and DMSO Firefly/Renilla ratios as positive and negative controls, respectively.

[1] = max efficacy in Primary Assay, Firefly/Renilla ratio, kinetin and DMSO as positive and negative controls, 24 hours of treatment, read-out: Emax (%)
[2] = Firefly/Renilla ratio, 24 hours of treatment
[3] = max efficacy, Firefly only, footnote c: Renilla interference/Firefly only, read-out: Emax (%) Firefly only

| Compound | Emax [1] [%] | EC (maximum kinetin efficacy) [2] [µM] | Emax [3] [%] | ECk, Firefly only [µM⁻¹] |
| --- | --- | --- | --- | --- |
| COc1cc(CNc2nc(Cl)nc3[nH]cnc23)ccn1 [(241)] | 13 |  |  |  |
| COCCOc1nc2c(NCc3ccco3)nc(Cl)nc2[nH]1 [(293)] | 169 | 1.78 |  |  |
| COc1nc2c(N(CCO)Cc3nccs3)nc(Cl)nc2[nH]1 [(386)] | 69.2 |  |  |  |
| FC(F)(F)CCOc1nc2c(NCc3cscn3)nc(Cl)nc2[nH]1 [(499)] | 156 | 1.67 |  |  |
| [N-]=[N+]=Nc1nc2c(NCc3ccco3)nc(Cl)nc2[nH]1 [(133)] | 143 | 11.8 |  |  |
| CCCOc1nc2c(NCc3ccncc3)nc(Cl)nc2[nH]1 [(282)] | 233 | 0.42 |  |  |
| NC(=O)c1c[nH]c2nc(Cl)nc(NCc3ccco3)c12 [(165)] | 59 |  |  |  |
| Fc1nc(NCc2ccncc2)c2cc[nH]c2n1 [(380)] | 108 | 4.38 |  |  |
| COC(=O)c1nc2c(NCc3ccco3)nc(Cl)nc2[nH]1 [(232)] | 59 |  |  |  |
| Clc1nc(NCc2cscn2)c2nc(OCC3CCO3)[nH]c2n1 (centres unmarked) [(493)] | 168 | 3.05 |  |  |
| FCCn1ccc2c(NCc3ccncn3)nc(Cl)nc21 [(191)] | 231 | 5.92 |  |  |
| N#Cc1nc2c(NCc3ccco3)nc(Cl)nc2[nH]1 [(162)] | 103 | 48.7 |  |  |
| CC(=O)N1CCC(n2ccc3c(NCc4ccco4)nc(Cl)nc32)CC1 [(197)] | 14 |  |  |  |
| Cc1cnccc1CNc1nc(Cl)nc2[nH]ccc12 [(263)] | 105 | 27.4 |  |  |
| Fc1c[nH]c2nc(Cl)nc(NCc3ccncc3)c12 [(114)] |  |  | 174 | 6.59 |
| Clc1nc(NCc2ccco2)c2nc[nH]c2n1 [(323)] | 26 |  |  |  |
| COc1nc2c(NCc3ccco3)nc(Cl)nc2[nH]1 [(124)] | 180 | 2.41 |  |  |
| CN(Cc1nccs1)c1nc(Cl)nc2[nH]ccc12 [(363)] | 53.2 |  |  |  |
| Clc1nc(NCc2ccncc2)c2cn[nH]c2n1 [(217)] | 151 | 7.07 |  |  |
| CNCc1cc2c(NCc3ccco3)nc(Cl)nc2[nH]1 [(181)] | 122 | 8.4 |  |  |
| Ic1nc(NCc2ccco2)c2nc[nH]c2n1 [(264)] | 44 |  |  |  |
| Clc1nc(NCc2ccco2)c2nc(OCC#Cc3ccccc3)[nH]c2n1 [(474)] | 24.9 |  |  |  |
| Clc1nc(NCc2ccncn2)c2cc[nH]c2n1 [(110)] |  |  | 193 | 4.92 |
| Clc1nc(NCc2ccnc3ccccc23)c2nc[nH]c2n1 [(185)] | 22 |  |  |  |
| COc1nc2c(NC(C)c3nccs3)nc(Cl)nc2[nH]1 (centres unmarked) [(370)] | 33 |  |  |  |
| FCCn1ncc2c(NCc3ccco3)nc(Cl)nc21 [(214)] | 197 | 11.2 |  |  |

| Compound | Emax [1] [%] | EC (maximum kinetin efficacy) [2] [µM] | Emax [3] [%] | ECk, Firefly only [µM⁻¹] |
| --- | --- | --- | --- | --- |
| FC(F)(F)c1ccccc1CNc1ncnc2[nH]cnc12 [(23)] | 34 |  |  |  |
| CNCc1c[nH]c2nc(Cl)nc(NCc3ccco3)c12 [(177)] | 60 |  |  |  |
| c1cncc(CNc2ncnc3[nH]cnc23)c1 [(7)] | 39 |  |  |  |
| Clc1cc(NCc2nccs2)n2ccnc2n1 [(295)] | 54 |  |  |  |
| FC1(F)CC(COc2nc3c(NCc4cscn4)nc(Cl)nc3[nH]2)C1 [(488)] | 206 | 1.02 |  |  |
| Fc1c[nH]c2nc(Cl)nc(NCc3ccco3)c12 [(81)] |  | 3.08 |  |  |
| Clc1nc(NCc2ccco2)c2nc(OCCc3ccccc3)[nH]c2n1 [(492)] | 54.5 |  |  |  |
| Clc1nc(NCc2ccnnc2)c2nc[nH]c2n1 [(179)] | 49 |  |  |  |
| Clc1nc(NCc2ccnc3ccccc23)c2cc[nH]c2n1 [(186)] | 17 |  |  |  |
| Clc1nc(NCc2cscn2)c2nc(OC3COC3)[nH]c2n1 [(497)] | 120 | 5.56 |  |  |
| Fc1ccccc1CNc1nc(Cl)nc2[nH]cnc12 [(352)] | 25 |  |  |  |
| FC(F)(F)c1ccccc1Nc1ncnc2[nH]cnc12 [(18)] | 39 |  |  |  |
| COc1nc2c(NCc3cscn3)nc(Cl)nc2[nH]1 [(375)] | 134 | 2.18 |  |  |
| FC(F)(F)c1nc(NCc2ccco2)c2nc[nH]c2n1 [(44)] | 19 |  |  |  |
| COc1nc2c(NCc3ccncc3)nc(Cl)nc2[nH]1 [(184)] | 169 | 3.62 |  |  |
| NC(=O)c1nc2c(NCc3ccco3)nc(Cl)nc2[nH]1 [(238)] | 64 | 64.8 |  |  |
| COCc1cc2c(NCc3ccco3)nc(Cl)nc2[nH]1 [(166)] | 80 |  |  |  |
| FCCn1ccc2c(NCc3ccncc3)nc(Cl)nc21 [(194)] | 241 | 4.49 |  |  |
| OCCn1ccc2c(NCc3ccncc3)nc(Cl)nc21 [(122)] | 256 | 5.65 |  |  |
| Clc1nc(NCc2cc3ccccc3o2)c2nc[nH]c2n1 [(164)] | 68 |  |  |  |
| O=C(O)Cn1ccc2c(NCc3ccco3)nc(Cl)nc21 [(167)] | 37 |  |  |  |
| CSc1nc2c(NCc3ccncn3)nc(Cl)nc2[nH]1 [(303)] | 243 | 1.51 |  |  |
| Clc1nc(NCc2ccco2)c2c(Cl)c[nH]c2n1 [(205)] | 27 | 6.41 |  |  |
| COCCOc1nc2c(NCc3ccncc3)nc(Cl)nc2[nH]1 [(290)] | 238 | 2.04 |  |  |
| CC(=O)N1CC(Oc2nc3c(NCc4nccs4)nc(Cl)nc3[nH]2)C1 [(469)] | 13.3 |  |  |  |
| FC(F)(F)c1cccc(CCNc2ncnc3[nH]cnc23)c1 [(5)] |  | 63.5 |  |  |

| Compound | Emax [1] [%] | EC (maximum kinetin efficacy) [2] [µM] | Emax [3] [%] | ECk, Firefly only [µM⁻¹] |
| --- | --- | --- | --- | --- |
| Clc1nc(NCc2ccncc2Cl)c2nc[nH]c2n1 [(229)] | 55 |  |  |  |
| Fc1cnccc1CNc1nc(Cl)nc2[nH]cnc12 [(227)] | 163 | 23.3 |  |  |
| Clc1nc(NCc2ccco2)c2nc(N3CCOCC3)[nH]c2n1 [(102)] | 52 |  |  |  |
| Fc1nc(NCc2ccncc2)c2nc[nH]c2n1 [(371)] | 82 |  |  |  |
| CC(Nc1nc(Cl)nc2[nH]ccc12)c1nccs1 (centres unmarked) [(364)] | 18.2 |  |  |  |
| O=C1CCCN1CCOc1nc2c(NCc3nccs3)nc(Cl)nc2[nH]1 [(402)] | 21 |  |  |  |
| Clc1nc(NCc2nccs2)c2nc(OCc3nccs3)[nH]c2n1 [(329)] | 209 | 1.97 |  |  |
| N#Cc1c[nH]c2nc(Cl)nc(NCc3ccncn3)c12 [(152)] | 35 |  |  |  |
| Cc1cn(CCO)c2nc(Cl)nc(NCc3ccco3)c12 [(105)] |  |  | 134 | 10.36 |
| Clc1nc(NCc2cccnn2)c2cc[nH]c2n1 [(174)] | 37 |  |  |  |
| CN(C)C(=O)Cn1ccc2c(NCc3ccco3)nc(Cl)nc21 [(153)] | 20 |  |  |  |
| CC(F)(F)COc1nc2c(NCc3nccs3)nc(Cl)nc2[nH]1 [(388)] | 215 | 0.68 |  |  |
| CCCOc1nc2c(N(CCO)Cc3nccs3)nc(Cl)nc2[nH]1 [(393)] | 85.2 | 7.4 |  |  |
| Cc1c[nH]c2nc(Cl)nc(NCc3nccs3)c12 [(123)] | 92 | 4.9 |  |  |
| COc1nc(NCc2ccco2)c2nc[nH]c2n1 [(36)] | 18 |  |  |  |
| c1cncc(CCNc2ncnc3[nH]cnc23)c1 [(41)] | 35 |  |  |  |
| Fc1c[nH]c2nc(Cl)nc(NCc3nccs3)c12 [(116)] | 112 | 31.8 |  |  |
| Clc1nc(NCc2nncs2)c2cc[nH]c2n1 [(501)] | 18.1 |  |  |  |
| COc1nc2c(NCc3ccncn3)nc(Cl)nc2n1CCO [(300)] | 84 | 10 |  |  |
| Clc1nc(NCc2ccco2)c2nc(C3CC3)[nH]c2n1 [(95)] | 103 | 122 |  |  |
| Clc1nc(NCc2ccco2)c2nc(OC3CNC3)[nH]c2n1 [(333)] | 51 |  |  |  |
| CN(C)C(=O)c1cc2c(NCc3ccco3)nc(Cl)nc2[nH]1 [(195)] | 81 |  |  |  |
| CN(C)CCn1ccc2c(NCc3ccco3)nc(Cl)nc21 [(206)] | 27 |  |  |  |
| CCOc1nc2c(NCc3ccncc3)nc(Cl)nc2[nH]1 [(273)] | 254 | 0.62 |  |  |
| Cn1cnc2c(NCc3ccco3)ncnc21 [(20)] | 22 |  |  |  |
| Cc1noc(-c2cc3c(NCc4ccco4)nc(Cl)nc3[nH]2)n1 [(246)] | 22 |  |  |  |
